Results taken from patent US11096930B2, “Substituted imidazopyridine compounds as inhibitors of indoleamine 2,3-dioxygenase and/or tryptophan-2,3-dioxygenase” (IOMet Pharma Ltd., priority 2016, dated 2021).

Columns and labels:
[1] = molecular target: T1, IDO1 (Homo sapiens (Human), UniProt P14902); experiment: IDO1 HEK293 Cellular Assay; assay type: cell-based; details: HEK293 cells transfected with Flag-IDO1 vector; read-out: HEK293 Cell Assay, pIC50 (converted)
Description: IDO1 HEK293 Cellular Assay
Compounds to be tested were serially diluted in ten 3-fold steps in DMSO starting from 10 mM DMSO stocks. Compound dilutions or DMSO alone were then dispensed from the dilution plate into a Greiner black 384-well assay plate (catalog #781086) using an Echo 550 acoustic liquid handler (Labcyte).
HEK293 cell pellets were resuspended to 5×10^5 cells/mL in complete HEK293 culture media (89% DMEM, 10% FBS, 1% penicilllin/streptomycin). Suspended cells (2 mL) were dispensed into each well of a 6-well Corning plate (Catalog #3516). Cells were allowed to attach and were incubated for 20 hours at 37 degrees Celsius in a 5% CO2 incubator. Flag-IDO1 vector (Genscript True ORF Gold, 2 ug) in 150 uL of Opti-MEM medium was added to each well of a Corning 24 well plate (Cat #3527) and incubated for 5 minutes at room temperature. To each well of the 24-well plate was added 150 μL Lipofectamine 2000 (Gibco) and the plate incubated at room temperature for 20-30 minutes. To each well of attached cells in the 6-well plate, 250 μL of the transfection mix from the 24-well plate was gently added to each well and IDO1 protein was allowed to express for 24-30 hours at 37 degrees Celsius in a 5% CO2 incubator.
Media was removed from the cells which were then washed with 2 mL Dulbecco's phosphate-buffered saline (DPBS). After removal of DPBS, 0.5 mL of TrypLE (Gibco) was added and incubated at 5 minutes until cells lift from the surface of the wells. Complete HEK293 culture media (4 mL) was added to each well and cells were collected and pooled into a conical tube. Cells were pelleted at 200×g for 5 minutes and resuspended in an equal volume of complete DMEM medium. Cells were diluted to 4×10^5 cells per mL in complete HEK293 media. L-Tryptophan was added to added to give a final concentration of 200 μM. The diluted transfected cells (50 μL) or nontransfected cells (50 μL) were dispensed into wells of Greiner black 384-well assay plates (catalog #781086) containing previously diluted compounds. The plate is briefly mixed and centrifuged at 200×g for 10 seconds to collect cells at the bottom of the plate. Plates were covered and incubated for 20-24 hours at 37 degrees C. in a 5% CO2 incubator. […] The resulting fluoresence was measured in an Envision plate reader (Perkin Elmer) with a 400/25 nm excitation filter and an 510/20 nm emission filter.
The fluoresence intensity of each well was corrected for the background observed in wells with untransfected cells and was expressed as a fraction of the intensity observed in wells of IDO1 transfected cells and DMSO only. Potencies were calculated by linear least squares fit to the four parameter logistic IC50 equation.

[2] = molecular target: T1, IDO1; experiment: IDO1 Enzyme Assay; assay type: biochemical; details: HIS-tagged IDO1, fluorescence
Description: Compounds to be tested were serially diluted in ten 3-fold steps in DMSO starting from 10 mM DMSO stocks. Compound dilutions or DMSO alone were then dispensed from the dilution plate into a Greiner black 384-well assay plate (catalog #781086) using an Echo 555 acoustic liquid handler (Labcyte).
HIS-tagged IDO1 protein was recombinantly expressed in Escherichia coli using ZYP5052 autoinduction media supplemented with 500 μM delta aminolevulinic acid for 48 hours at 16 degrees Celsius. IDO1 protein was purified using Ni^2+-affinity resin and size exclusion chromatography. Purified protein was then diluted in assay buffer (50 mM Tris pH 7.0, 1% glycerol, 20 μM methylene blue, 0.05% Tween-20, 20 mM sodium ascorbate, 100 units/mL catalase to obtain a final IDO1 concentration of 40 nM. […] were dispensed to wells of the assay plate using a BioRAPTR liquid dispenser (Beckman Coulter). Assay plates containing compound and IDO1 enzyme were incubated at room temperature for 30 minutes. Afterwards, 10 μL of 400 μM tryptophan in assay buffer were added to each well of the assay plate using a BioRAPTR liquid dispenser. Plates were incubated at room temperature for 60 minutes and reactions were quenched by addition of 10 μL of 0.5 M methyl isonipecotate in dimethyl sulfoxide. Plates were sealed and incubated at 37 degrees Celsius for 4 hours or 50 degrees Celsius for 2 hours. The plates are allowed to cool and then centrifuged for 1 minute at 1000×g. The resulting fluoresence was measured in an Envision plate reader (Perkin Elmer) with a 400/25 nm excitation filter and an 510/20 nm emission filter.
Potencies were calculated by linear least squares fit to the four parameter logistic IC50 equation.

T1 sequence (P14902 whole entry): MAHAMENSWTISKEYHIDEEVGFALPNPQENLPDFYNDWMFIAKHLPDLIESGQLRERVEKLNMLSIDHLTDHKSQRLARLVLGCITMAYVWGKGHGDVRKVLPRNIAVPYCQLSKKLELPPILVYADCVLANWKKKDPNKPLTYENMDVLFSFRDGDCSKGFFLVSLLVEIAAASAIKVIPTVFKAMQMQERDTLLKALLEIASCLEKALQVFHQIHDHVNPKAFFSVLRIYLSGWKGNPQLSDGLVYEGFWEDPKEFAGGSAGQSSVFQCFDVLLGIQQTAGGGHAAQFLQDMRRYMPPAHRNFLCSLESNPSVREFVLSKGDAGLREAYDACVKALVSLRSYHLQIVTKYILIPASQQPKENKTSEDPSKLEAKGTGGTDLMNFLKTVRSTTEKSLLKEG

Row | IC50 [1] [µM] | IDO1 Enzyme Assay, pIC50 [2] | Compound
1 | 6.31 | 5.1 | O=C1NCCC12CCN(c1cc(C(F)(F)F)cc3cncn13)CC2 [Example 19, 8-(7-(trifluoromethyl)imidazo[1,5-a]pyridin-5-yl)-2,8-diazaspiro[4.5]decan-1-one]
2 | 1.58 | 5.7 | CC1=NC2(CCN(c3cc(C(F)(F)F)cc4cncn34)CC2)C(=O)N1 [Example 18, 2-methyl-8-(7-(trifluoromethyl)imidazo[1,5-a]pyridin-5-yl)-1,3,8-triazaspiro[4.5]dec-1-en-4-one]
3 | 1.58 | 5.7 | O=C1OCCC12CCN(c1cc(C(F)(F)F)cc3cncn13)CC2 [Example 17, 8-(7-(trifluoromethyl)imidazo[1,5-a]pyridin-5-yl)-2-oxa-8-azaspiro[4.5]decan-1-one]
4 | 2 | 5.2 | CC(=O)N1CCC2(CC1)CCN(c1cc(C(F)(F)F)cc3cncn13)CC2 [Example 20, 1-(9-(7-(Trifluoromethyl)imidazo[1,5-a]pyridin-5-yl)-3,9-diazaspiro[5.5]undecan-3-yl)ethan-1-one]
